Measured values published in patent US8895504B2, “Amylin derivatives” (priority 2008, dated 2014).
*1 amine or outer side, *2 acyl side, *3 side chain or, on linkers, in order; H or OH if unused. Where a SMILES comes first, the peptide text is derived from it. Bridges are numbered along the chain shown (N, C = ends). The star is where a group is joined. C20 diacid = O=C(O)CCCCCCCCCCCCCCCCCCC(=O)*; C18 diacid = O=C(O)CCCCCCCCCCCCCCCCC(=O)*; γGlu = O=C(O)[C@H](CCC(=O)[*:2])N[*:1]; AEEA = NCCOCCOCC(=O)O

Key:
[1] = molecular target: T1, Amylin 3(a) receptor (human calcitonin receptor (CTa) and RAMP-3) (Homo sapiens, UniProt O60896+P30988); assay: Luciferase assay (III), BHK Amylin 3(a)//CRE-luc cells; assay type: cell-based; details: BHK cells with Amylin 3(a) receptor and CRE luciferase reporter, 4 hours incubation; read-out: Potency Luciferase
T1 construct: expressed in transfected cells; host or cells: BHK570 cells, stably transfected with a CRE-luciferase reporter
Summary of the method: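 BHK570 cells stably expressing CTa, RAMP-3 and a CRE-luciferase reporter, seeded at about 20,000 cells/well and grown overnight. Cells were exposed to standard or sample for 4 h at 37° C in phenol red-free DMEM with 10% FBS and 10 mM Hepes, pH 7,4. Luminescence was read after 30 min LucLite at room temperature.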

food intake = assay: Pharmacological Assay (I) - efficacy testing on appetite, ad libitum fed rat model; assay type: in vivo, Sprague Dawley (SD) rats; details: 30 nmol/kg vs vehicle, ad libitum fed rats, n=5-7, 0-48 hours
From the text: Assays Pharmacological Assay (I)—Experimental Protocol for Efficacy Testing on Appetite with an Amylin Derivative, Using an Ad Libitum Fed Rat Model. Sprague Dawley (SD) rats from Taconic Europe, Denmark are used for the experiments. The rats have a body weight 200-250 g at the start of experiment. The rats arrive at least 10-14 days before start of experiment to allow acclimatization to experimental settings. During this period the animals are handled at least 2 times. After arrival rats are housed individually for one week in a reversed light/dark phase (meaning that lights are off during daytime and on during nighttime) for two weeks. Since rats are normally active and eat their major part of their daily food intake during the dark period, rats are dosed in the morning right before lights are turned off. This set-up results in the lowest data variation and highest test sensitivity. The experiment is conducted in the rats' home cages and rats have free access to food and water throughout the acclimatization period and the experiment period. Each dose of derivative is tested in a group of 5-8 rats. A vehicle group of 6-8 rats is included in each set of testing. Rats are dosed once according to body weight with a 0.01-3 mg/kg solution administered intraperitoneally (ip), orally (po) or subcutaneously (sc). The time of dosing is recorded for each group. After dosing, the rats are returned to their home cages, where they then have access to food and water. The food consumption is recorded individually continuously by on-line registration or manually every hour for 7 hours, and then after 24 h and sometimes 48 h. At the end of the experimental session, the animals are euthanized. The individual data are recorded in Microsoft excel sheets. Outliers are excluded after applying the Grubbs statistical evaluation test for outliers, and the result is presented graphically using the GraphPad Prism program.

[2] = Assay (V) PK - determination of T½ in mini-pig; assay type: in vivo; details: minipig, sc; terminal plasma half-life, subcutaneous, approx 2 nmol/kg, male Göttingen mini-pigs
Experimental: Assay (V) PK—Determination OF T½ in Mini-Pig
T½ is the terminal half-life=ln 2/λz of a compound in plasma. λz is the first order rate constant associated with the terminal (log-linear) portion of the plasma concentration-time curve and is estimated by linear regression of time vs. log concentration.
T½ values of the amylin analogues of the invention is determined by pharmacokinetic studies in male Göttingen mini-pigs from Ellegaard Göttingen Minipigs ApS and the principles of laboratory animal care are followed.
An acclimatization period of approximately 6-10 days was allowed before the animals entered the study. At start of the acclimatization period the mini-pigs were about 5 to 12 months old and in the weight range of 7-35 kg. The mini-pigs had two central venous catheters inserted which were used for blood sampling.
The studies were conducted in an animal room which was illuminated to give a cycle of approx 12 hours light and 12 hours darkness. The animals were housed individually.
The animals had free access to domestic quality drinking water during the study, but were typically fasted from overnight before dosing until approx 6-12 hours after dosing. The animals were weighed on arrival and on the days of dosing.
In the present studies the test substances were administered subcutaneously in approx 2 nmol/kg dose. The animals received a single subcutaneous injection. The subcutaneous injection was given on the right side of the neck, approximately 5-7 cm from the ear and 7-9 cm from the middle of the neck. The injections were given with a stopper on the needle, allowing approx 0.5 cm of the needle to be introduced. Each test substance was given to typically three but in some cases two or four animals.
A full plasma concentration-time profile, employing 12-16 sampling points, was obtained from each animal. In example blood samples were collected according to the following schedule:
After subcutaneous administration:
Predose (0), 0.5, 1, 2, 4, 6, 8, 12, 24, 48, 72, 96, 120, 168 and 240 hours after injection. In some cases also additional blood samples up to 288 hours post injection were taken.
At each sampling time, 0.5 to 2 ml of blood was drawn from each animal. The blood samples were taken via the central venous catheter.
The blood samples were collected into EDTA test tubes (i.e. Sarstedt Micro tube 1.3 mL K3E). Blood samples were kept on ice for max 20 min. before centrifugation. Plasma was separated using centrifugation (i.e. at 4° C., 10 min., 1500 G) and was immediately transferred to Micronic tubes. Approximately 200 μl plasma was transferred to each Micronic tube. The plasma was stored at −20° C. until assayed. The plasma samples were assayed for the content of amylin using an ELISA assay.
The plasma concentration-time profiles were analysed by a non-compartmental pharmacokinetic analysis (NCA) using WinNonlin Professional 5.0 (Pharsight Inc., Mountain View, Calif., USA). NCA was performed using the individual plasma concentration-time profiles from each animal. T½ is the terminal half-life=ln 2/λz and was determined from λz, the first order rate constant associated with the terminal (log-linear) portion of the curve, estimated by linear regression of time vs. log concentration.
ELISA Plasma Assay for Amylin Quantification
The human amylin ELISA is a monoclonal antibody-based sandwich immunoassay for determining amylin levels in human plasma. The capture antibody recognizes human amylin, amylin acid (deamidated amylin), a 1-20 fragment of amylin, but not reduced amylin.
The detection antibody binds to reduced or unreduced human amylin but not amylin acid and is complexed with streptavidin-alkaline phosphatase. The substrate, 4-methylumbelliferyl phosphate, is applied to the completed sandwich and the fluorescent signal, monitored at 355 nm/460 nm, is proportional to the amount of amylin present in the sample.

T1 sequence (O60896 24-148): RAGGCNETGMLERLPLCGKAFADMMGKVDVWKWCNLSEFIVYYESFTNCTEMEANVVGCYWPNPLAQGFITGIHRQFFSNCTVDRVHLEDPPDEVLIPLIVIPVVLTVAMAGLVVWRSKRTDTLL
T1 sequence (P30988 25-474): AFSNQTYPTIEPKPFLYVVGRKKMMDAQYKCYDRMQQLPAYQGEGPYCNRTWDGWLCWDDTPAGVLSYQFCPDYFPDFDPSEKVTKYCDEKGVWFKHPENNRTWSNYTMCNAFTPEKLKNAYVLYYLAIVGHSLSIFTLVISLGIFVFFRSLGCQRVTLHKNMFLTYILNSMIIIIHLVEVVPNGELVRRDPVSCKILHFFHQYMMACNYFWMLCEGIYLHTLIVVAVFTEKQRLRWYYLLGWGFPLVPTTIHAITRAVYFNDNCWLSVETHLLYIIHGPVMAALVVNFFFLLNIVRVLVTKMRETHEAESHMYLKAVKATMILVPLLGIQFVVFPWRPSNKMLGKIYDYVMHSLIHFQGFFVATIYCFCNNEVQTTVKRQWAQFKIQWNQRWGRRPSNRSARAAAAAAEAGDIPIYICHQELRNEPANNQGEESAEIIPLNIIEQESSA

| EC50 [1] [nM] | half-life [2] [h] | SMILES | food intake over a period of 48 hours (food intake) |
| --- | --- | --- | --- |
| 0.03 |  | CC[C@H](C)[C@H](NC(=O)[C@@H]1CCCN1C(=O)CNC(=O)[C@H](Cc1ccccc1)NC(=O)[C@H](CC(N)=O)NC(=O)[C@H](CC(N)=O)NC(=O)[C@H](CO)NC(=O)[C@H](CO)NC(=O)[C@H](Cc1c[nH]cn1)NC(=O)[C@H](Cc1c[nH]cn1)NC(=O)[C@H](CC(C)C)NC(=O)[C@H](Cc1ccccc1)NC(=O)[C@H](CC(N)=O)NC(=O)[C@H](C)NC(=O)[C@H](CC(C)C)NC(=O)[C@H](CCCNC(=N)N)NC(=O)[C@H](CCC(N)=O)NC(=O)[C@@H](NC(=O)[C@H](C)NC(=O)[C@@H]1CSSC[C@H](NC(=O)[C@H](CCCNC(=N)N)NC(=O)COCCOCCNC(=O)COCCOCCNC(=O)CC[C@H](NC(=O)CCCCCCCCCCCCCCCCC(=O)O)C(=O)O)C(=O)N[C@@H](CC(N)=O)C(=O)N[C@@H]([C@@H](C)O)C(=O)N[C@@H](C)C(=O)N[C@@H]([C@@H](C)O)C(=O)N1)[C@@H](C)O)C(=O)N[C@@H](CC(C)C)C(=O)N1CCC[C@H]1C(=O)N1CCC[C@H]1C(=O)N[C@H](C(=O)N[C@@H](CC(N)=O)C(=O)N[C@H](C(=O)NCC(=O)N[C@@H](CO)C(=O)N[C@@H](CC(N)=O)C(=O)N[C@H](C(=O)N[C@@H](Cc1ccc(O)cc1)C(N)=O)[C@@H](C)O)C(C)C)[C@@H](C)O [Example 45, N-alpha-[2-(2-{2-[2-(2-{2-[(S)-4-Carboxy-4-(17-carboxyheptadecanoylamino)butyrylamino]ethoxy}ethoxy)acetylamino]ethoxy}ethoxy)acetyl][Arg1,His17]-pramlintide] ({C18 diacid-γGlu-AEEA-AEEA}-RCNTATCATQRLANFLHHSSNNFGPILPPTNVGSNTY-NH2; disulfide 2-7) | effectively reducing food intake |
| 0.09 | 66 | CC[C@H](C)[C@H](NC(=O)[C@@H]1CCCN1C(=O)CNC(=O)[C@H](Cc1ccccc1)NC(=O)[C@H](CC(N)=O)NC(=O)[C@H](CC(N)=O)NC(=O)[C@H](CO)NC(=O)[C@H](CO)NC(=O)[C@H](Cc1c[nH]cn1)NC(=O)[C@H](Cc1c[nH]cn1)NC(=O)[C@H](CC(C)C)NC(=O)[C@H](Cc1ccccc1)NC(=O)[C@H](CC(N)=O)NC(=O)[C@H](C)NC(=O)[C@H](CC(C)C)NC(=O)[C@H](CCCNC(=N)N)NC(=O)[C@H](CCC(N)=O)NC(=O)[C@@H](NC(=O)[C@H](C)NC(=O)[C@@H]1CSSC[C@H](NC(=O)[C@H](Cc2c[nH]cn2)NC(=O)COCCOCCNC(=O)CC[C@H](NC(=O)CCCCCCCCCCCCCCCCCCC(=O)O)C(=O)O)C(=O)N[C@@H](CC(N)=O)C(=O)N[C@@H]([C@@H](C)O)C(=O)N[C@@H](C)C(=O)N[C@@H]([C@@H](C)O)C(=O)N1)[C@@H](C)O)C(=O)N[C@@H](CC(C)C)C(=O)N1CCC[C@H]1C(=O)N1CCC[C@H]1C(=O)N[C@H](C(=O)N[C@@H](CC(N)=O)C(=O)N[C@H](C(=O)NCC(=O)N[C@@H](CO)C(=O)N[C@@H](CC(N)=O)C(=O)N[C@H](C(=O)N[C@@H](Cc1ccc(O)cc1)C(N)=O)[C@@H](C)O)C(C)C)[C@@H](C)O [Example 37, N-alpha-[2-(2-{2-[4-(S)-Carboxy-4-(19-carboxynonadecanoylamino)butyrylamino]ethoxy}ethoxy)acetyl]-[His1,His17]-pramlintide] ({C20 diacid-γGlu-AEEA}-HCNTATCATQRLANFLHHSSNNFGPILPPTNVGSNTY-NH2; disulfide 2-7) |  |
| 0.07 | 110 | CC[C@H](C)[C@H](NC(=O)[C@@H]1CCCN1C(=O)CNC(=O)[C@H](Cc1ccccc1)NC(=O)[C@H](CC(N)=O)NC(=O)[C@H](CC(N)=O)NC(=O)[C@H](CO)NC(=O)[C@H](CO)NC(=O)[C@H](Cc1c[nH]cn1)NC(=O)[C@H](Cc1c[nH]cn1)NC(=O)[C@H](CC(C)C)NC(=O)[C@H](Cc1ccccc1)NC(=O)[C@H](CC(N)=O)NC(=O)[C@H](C)NC(=O)[C@H](CC(C)C)NC(=O)[C@H](CCCNC(=N)N)NC(=O)[C@H](CCC(N)=O)NC(=O)[C@@H](NC(=O)[C@H](C)NC(=O)[C@@H]1CSSC[C@H](NC(=O)[C@H](Cc2c[nH]cn2)NC(=O)CC[C@H](NC(=O)CCCCCCCCCCCCCCCCCCC(=O)O)C(=O)O)C(=O)N[C@@H](CC(N)=O)C(=O)N[C@@H]([C@@H](C)O)C(=O)N[C@@H](C)C(=O)N[C@@H]([C@@H](C)O)C(=O)N1)[C@@H](C)O)C(=O)N[C@@H](CC(C)C)C(=O)N1CCC[C@H]1C(=O)N1CCC[C@H]1C(=O)N[C@H](C(=O)N[C@@H](CC(N)=O)C(=O)N[C@H](C(=O)NCC(=O)N[C@@H](CO)C(=O)N[C@@H](CC(N)=O)C(=O)N[C@H](C(=O)N[C@@H](Cc1ccc(O)cc1)C(N)=O)[C@@H](C)O)C(C)C)[C@@H](C)O [Example 29, N-alpha-[(S)-4-Carboxy-4-(19-carboxynonadecanoylamino)butyryl]-[His1,His17]-pramlintide] ({C20 diacid-γGlu}-HCNTATCATQRLANFLHHSSNNFGPILPPTNVGSNTY-NH2; disulfide 2-7) |  |
| 0.1 | 53 | CC[C@H](C)[C@H](NC(=O)[C@@H]1CCCN1C(=O)CNC(=O)[C@H](Cc1ccccc1)NC(=O)[C@H](CC(N)=O)NC(=O)[C@H](CC(N)=O)NC(=O)[C@H](CO)NC(=O)[C@H](CO)NC(=O)[C@H](Cc1c[nH]cn1)NC(=O)[C@H](CCCNC(=N)N)NC(=O)[C@H](CC(C)C)NC(=O)[C@H](Cc1ccccc1)NC(=O)[C@H](CC(N)=O)NC(=O)[C@H](C)NC(=O)[C@H](CC(C)C)NC(=O)[C@H](CCCNC(=N)N)NC(=O)[C@H](CCC(N)=O)NC(=O)[C@@H](NC(=O)[C@H](C)NC(=O)[C@@H]1CSSC[C@H](NC(=O)[C@H](CCCCN)NC(=O)[C@H](CCCNC(=N)N)NC(=O)COCCOCCNC(=O)CC[C@H](NC(=O)CCCCCCCCCCCCCCCCCCC(=O)O)C(=O)O)C(=O)N[C@@H](CC(N)=O)C(=O)N[C@@H]([C@@H](C)O)C(=O)N[C@@H](C)C(=O)N[C@@H]([C@@H](C)O)C(=O)N1)[C@@H](C)O)C(=O)N[C@@H](CC(C)C)C(=O)N1CCC[C@H]1C(=O)N1CCC[C@H]1C(=O)N[C@H](C(=O)N[C@@H](CC(N)=O)C(=O)N[C@H](C(=O)NCC(=O)N[C@@H](CO)C(=O)N[C@@H](CC(N)=O)C(=O)N[C@H](C(=O)N[C@@H](Cc1ccc(O)cc1)C(N)=O)[C@@H](C)O)C(C)C)[C@@H](C)O [Example 23, N-alpha-[2-(2-{2-[4-(S)-Carboxy-4-(19-carboxynonadecanoylamino)butyrylamino]ethoxy}ethoxy)acetyl]-Arg-[Arg17]-pramlintide] ({C20 diacid-γGlu-AEEA}-RKCNTATCATQRLANFLRHSSNNFGPILPPTNVGSNTY-NH2; disulfide 3-8) |  |
